The numbers were not newly measured in US7163956B2, “Substituted fullerene compositions and their use as antioxidants” (C Sixty Inc., priority 2003, dated 2007), which cites them from elsewhere.

The data set relates to mice. Conditions: oral administration, about 0.5 mg/kg/day.

In the case of (C60(>C(COOH)2)3) [C3], the “increase in mean survival relative to controls” value was about 20%. Besides, the mean survival (controls 23.5+/−5.5 months, p=0.033) is 28.7+/−3.3 months.
